Data reported in patent publication US7323466B2, “Morpholine derivatives as 5HT2C receptor agonists for the treatment of obesity” (Hoffman-La Roche Inc., priority 2005, dated 2008).
pEC50, pKi: −log10 of the molar value. Read-outs that look alike come from different tables or passages of the source.

How the values were obtained:
5-HT2C receptor [1] = target: T1, 5-HT2C receptor (Homo sapiens, UniProt P28335); test: Binding to the 5-HT2C receptor, [3H]-5-HT, CHO cell line (Method (a)); design: expressed in transfected cells; host or cells: CHO cell line
T1 sequence (P28335 33-458): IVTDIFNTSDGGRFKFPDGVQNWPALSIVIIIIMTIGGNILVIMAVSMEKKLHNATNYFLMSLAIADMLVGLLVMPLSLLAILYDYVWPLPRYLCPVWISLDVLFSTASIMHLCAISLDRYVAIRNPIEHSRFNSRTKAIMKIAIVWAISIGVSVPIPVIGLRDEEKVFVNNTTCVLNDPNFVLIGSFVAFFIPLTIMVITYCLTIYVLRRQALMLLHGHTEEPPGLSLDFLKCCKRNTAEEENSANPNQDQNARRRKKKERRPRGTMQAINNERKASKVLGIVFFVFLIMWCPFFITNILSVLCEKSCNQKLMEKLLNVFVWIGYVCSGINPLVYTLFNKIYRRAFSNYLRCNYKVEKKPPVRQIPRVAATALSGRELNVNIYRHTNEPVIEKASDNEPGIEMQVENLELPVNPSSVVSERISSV
Method: (§1) The binding of compounds of formula (I) to serotonin receptors was determined in vitro by standard methods. The preparations were investigated in accordance with the assays given hereinafter.
Method (a): For the binding to the 5-HT2C receptor the 5-HT2C receptors were radiolabeled with [^3H]-5-HT. The affinity of the compounds for 5-HT2C receptors in a CHO cell line was determined according to the procedure of D. Hoyer, G. Engel and H. O. Kalkman, European J. Pharmacol., 1985, 118, 13-23.

human 5-HT2B receptors = target: T2, human 5-HT2B receptors (Homo sapiens, UniProt P41595); test: Binding to the 5-HT2B receptor, [3H]-5-HT, CHO cell line (Method (b))
T2 construct: expressed in transfected cells; host or cells: CHO cell line
Method: as §1
Method (b): For the binding to the 5-HT2B receptor the 5-HT2B receptors were radiolabeled with [^3H]-5-HT. The affinity of the compounds for human 5-HT2B receptors in a CHO cell line was determined according to the procedure of K. Schmuck, C. Ullmer, P. Engels and H. Lubbert, FEBS Lett., 1994, 342, 85-90.

5-HT2A receptor [2] = target: T3, 5-HT2A receptor (Homo sapiens, UniProt P28223); test: Binding to the 5-HT2A receptor, [125I]-DOI, CHO cell line (Method (c)); design: expressed in transfected cells; host or cells: CHO cell line
Method: as §1
Method (c): For the binding to the 5-HT2A receptor the 5-HT2A receptors were radiolabeled with [^125I]-DOI. The affinity of the compounds for 5-HT2A receptors in a CHO cell line was determined according to the procedure of D. J. McKenna and S. J. Peroutka, J. Neurosci., 1989, 9, 3482-90.

5-HT2A receptor [3] = target: T3, 5-HT2A receptor; test: Functional activity, FLIPR calcium assay, CHO cells expressing human 5-HT2A; format: cell-based; design: expressed in transfected cells; host or cells: CHO cells; settings: for pEC50: FLIPR, CHO cells, Fluo-3-AM, read-out: h5-HT2A EC50; for h5-HT2A Rel. Eff.: maximum fluorescent signal relative to 10 μM 5-HT (defined as 100%)
Method: (§2) The functional activity of compounds of formula (I) was assayed using a Fluorimetric Imaging Plate Reader (FLIPR). CHO cells expressing the human 5-HT2C or human 5-HT2A receptors were counted and plated into standard 96 well microtitre plates on the day before testing to give a confluent monolayer. The cells were then loaded with the calcium sensitive dye, Fluo-3-AM. Unincorporated dye was removed using an automated cell washer to leave a total volume of 100 μL/well of assay buffer (Hanks balanced salt solution containing 20 mM Hepes and 2.5 mM probenecid). The drug (dissolved in 50 μL of the assay buffer) was added at a rate of 70 μL/sec to each well of the FLIPR 96 well plate during fluorescence measurements. The measurements were taken at 1 sec intervals and the maximum fluorescent signal was measured (approx 10-15 secs after drug addition) and compared with the response produced by 10 μM 5-HT (defined as 100%) to which it was expressed as a percentage response (relative efficacy). Dose response curves were constructed using Graphpad Prism (Graph Software Inc.).

5-HT2C receptor [4] = target: T1, 5-HT2C receptor; test: Functional activity, FLIPR calcium assay, CHO cells expressing human 5-HT2C; format: cell-based; design: expressed in transfected cells; host or cells: CHO cells; settings: for h5-HT2C Rel. Eff.: maximum fluorescent signal relative to 10 μM 5-HT (defined as 100%)
Method: as §2

[5] = Method (a), [3H]-5-HT, CHO cell line, read-out: Ki (2C)
[6] = Method (b), [3H]-5-HT, human 5-HT2B, CHO cell line, read-out: Ki (2B)
[7] = Method (c), [125I]-DOI, CHO cell line, read-out: Ki (2A)
[8] = FLIPR, CHO cells, Fluo-3-AM, read-out: h5-HT2C EC50

T2 sequence (P41595 whole entry): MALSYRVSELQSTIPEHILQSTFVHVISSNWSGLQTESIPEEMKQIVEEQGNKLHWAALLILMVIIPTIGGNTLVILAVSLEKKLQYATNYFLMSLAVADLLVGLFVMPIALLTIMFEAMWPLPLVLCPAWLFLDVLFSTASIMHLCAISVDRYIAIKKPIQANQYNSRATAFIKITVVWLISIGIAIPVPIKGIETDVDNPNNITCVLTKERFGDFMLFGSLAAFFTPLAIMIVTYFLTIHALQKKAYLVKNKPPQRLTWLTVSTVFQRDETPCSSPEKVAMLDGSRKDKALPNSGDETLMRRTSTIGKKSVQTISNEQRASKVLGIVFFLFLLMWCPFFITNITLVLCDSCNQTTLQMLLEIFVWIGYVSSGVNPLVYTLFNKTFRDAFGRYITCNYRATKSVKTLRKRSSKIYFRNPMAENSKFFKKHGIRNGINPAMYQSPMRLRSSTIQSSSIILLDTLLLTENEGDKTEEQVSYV
T3 sequence (P28223 whole entry): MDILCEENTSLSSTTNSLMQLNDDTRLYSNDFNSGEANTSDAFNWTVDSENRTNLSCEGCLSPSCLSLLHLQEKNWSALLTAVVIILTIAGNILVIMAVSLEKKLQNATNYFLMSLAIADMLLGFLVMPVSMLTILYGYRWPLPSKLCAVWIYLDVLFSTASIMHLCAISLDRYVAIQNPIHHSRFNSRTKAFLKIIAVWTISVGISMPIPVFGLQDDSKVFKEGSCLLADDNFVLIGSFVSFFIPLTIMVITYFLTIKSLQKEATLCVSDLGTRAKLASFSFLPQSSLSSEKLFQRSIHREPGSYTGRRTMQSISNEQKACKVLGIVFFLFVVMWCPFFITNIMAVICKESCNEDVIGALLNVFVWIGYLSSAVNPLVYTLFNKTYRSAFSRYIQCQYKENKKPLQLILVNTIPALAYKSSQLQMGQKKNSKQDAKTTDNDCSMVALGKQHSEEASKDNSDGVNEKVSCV

FC(F)(F)c1cccc(C[C@@H]2CNCCO2)c1 [Example 14, (R)-2-(3-trifluoromethyl)benzylmorpholine]
pKi (5-HT2C receptor [1]; [5]): 8.00
pKi (human 5-HT2B receptors; [6]): 7.26
pKi (5-HT2A receptor [2]; [7]): 7.05
pEC50 (5-HT2A receptor [3]): 6.29
h5-HT2A Rel. Eff. (5-HT2A receptor [3]): 47%
pEC50 (5-HT2C receptor [4]; [8]): 8.15
h5-HT2C Rel. Eff. (5-HT2C receptor [4]): 97%

COc1c(C)cc(C[C@@H]2CNCCO2)cc1Br [Example 46, (R)-2-(3-bromo-4-methoxy-5-methyl-benzyl)morpholine]
pKi (5-HT2C receptor [1]; [5]): 7.09
pKi (human 5-HT2B receptors; [6]): < 5.00
pKi (5-HT2A receptor [2]; [7]): 6.19
pEC50 (5-HT2A receptor [3]): < 5.52
h5-HT2A Rel. Eff. (5-HT2A receptor [3]): 21%
pEC50 (5-HT2C receptor [4]; [8]): 7.28
h5-HT2C Rel. Eff. (5-HT2C receptor [4]): 94%

c1ccc(C[C@@H]2CNCCO2)cc1 [reference compound]
pKi (5-HT2C receptor [1]): 6.77
pKi (human 5-HT2B receptors): < 5.00
pKi (5-HT2A receptor [2]): < 5.00
pEC50 (5-HT2A receptor [3]): < 5.52
h5-HT2A Rel. Eff. (5-HT2A receptor [3]): 2%
pEC50 (5-HT2C receptor [4]): < 5.52
h5-HT2C Rel. Eff. (5-HT2C receptor [4]): 41%
